Data reported in patent US20070093552A1, “Early insulin secretion stimulator” (priority 2003, published 2007).

Legend:
Type in all cases: in vivo, human
[1] = test system: borderline diabetic patients; assay: Glucose tolerance test after administration of corosolic acid or placebo, blood insulin level (IRI) assayed (Test Example 1); details: 10 mg oral, 75 g glucose load, p<0.05, 31 patients
Method: A glucose tolerance test was performed after administration of corosolic acid or a placebo, in a double-blind crossover manner, and the blood insulin level (IRI: immunoreactive insulin) was assayed.
(§1) First, 31 borderline diabetic patients as test subjects were orally administered corosolic acid (10 mg, ≧99% purity) or a placebo, and blood was sampled immediately thereafter with the blood insulin level at that time designated as the value at 0 minutes. Immediately after blood sampling, 75 g of glucose was orally administered to each test subject to start a glucose tolerance test, and blood was sampled after periods of 30 minutes, 60 minutes, 90 minutes, 120 minutes and 180 minutes for measurement of the blood insulin level.
FIG. 1 is a graph showing the blood insulin levels during the glucose tolerance test. The horizontal axis represents time (min) after start of the glucose tolerance test, and the vertical axis represents IRI (μU/mL). In the graph, (a) is a case with administration of corosolic acid and (b) is a case with administration of the placebo.

[2] = test system: borderline diabetic patients; assay: Changes in blood glucose and blood insulin levels after fasting, absence of glucose load (Test Example 3); details: fasted, 10 mg; for I: blood insulin level: unit assumed
Method: Three borderline diabetic patients (person, person and person) were instructed to fast from 8:00 pm (to ensure absence of glucose load), and were administered a placebo once or the test agent (corosolic acid) once at 9:00 am on the following day, after which the changes in blood glucose levels and blood insulin levels were measured. The test subjects were given absolutely no information regarding placebo or test agent (crossover, double-blind). The corosolic acid was administered in a single 10 mg dose, and each test was conducted twice.
FIG. 3 is a graph showing changes in blood glucose levels with administration of corosolic acid and a placebo in the absence of a glucose load, and FIG. 4 is a graph showing changes in blood insulin levels with administration of corosolic acid and a placebo in the absence of a glucose load.

test subjects = assay: Glucose tolerance test after administration of corosolic acid, banaba extract or placebo, blood glucose level assayed (Test Example 2); details: 10 mg oral, 75 g glucose load, p<0.05, 35 subjects
Method: The following test was conducted to confirm that corosolic acid has a hypoglycemic effect. A glucose tolerance test was performed after administration of corosolic acid, banaba extract or a placebo, in a double-blind crossover manner, and the blood glucose level (plasma glucose concentration) was assayed.
as §1, with “35” for “31 borderline diabetic patients as”, “purity), banaba extract (trade name: COROSOLIA M, product of Use Techno Corporation; administered at 10 mg of corosolic acid)” for “purity)”, “glucose” for “insulin”
FIG. 2 is a graph showing blood glucose levels during the glucose tolerance test. The horizontal axis represents time (min) after start of the glucose tolerance test, and the vertical axis represents plasma glucose concentration (mg/dL). In the graph, (c) is a case with administration of corosolic acid, (d) is a case with administration of banaba leaf extract and (e) is a case with administration of the placebo.

[3] = 120 minutes after start of glucose tolerance test

C[C@H]1[C@H](C)CC[C@]2(C(=O)O)CC[C@]3(C)C(=CC[C@@H]4[C@@]5(C)C[C@@H](O)[C@H](O)C(C)(C)[C@@H]5CC[C@]43C)[C@H]12 [corosolic acid]
blood insulin level compared to placebo ([1]; 30 minutes after start of glucose tolerance test): significant increase | blood insulin level compared to placebo [1, 3]: significant drop | G: blood glucose level ([2]; test subject A, after 0 min): 110 mg/dL | I: blood insulin level ([2]; test subject A, after 0 min): 9 µU/mL | I: blood insulin level ([2]; test subject A, after 30 min): 6.9 µU/mL | I: blood insulin level ([2]; test subject A, after 60 min): 6.6 µU/mL | I: blood insulin level ([2]; test subject A, after 90 min): 5.9 µU/mL | I: blood insulin level ([2]; test subject A, after 120 min): 6.6 µU/mL | I: blood insulin level ([2]; test subject A, after 180 min): 5.1 µU/mL | I: blood insulin level ([2]; test subject B, after 0 min): 2.5 µU/mL | I: blood insulin level ([2]; test subject B, after 30 min): 2.6 µU/mL | I: blood insulin level ([2]; test subject B, after 60 min): 3 µU/mL | I: blood insulin level ([2]; test subject B, after 90 min): 2 µU/mL | G: blood glucose level ([2]; test subject B, after 120 min): 150 mg/dL | I: blood insulin level ([2]; test subject B, after 120 min): 3.4 µU/mL | I: blood insulin level ([2]; test subject B, after 180 min): 2.4 µU/mL | G: blood glucose level ([2]; test subject C, after 0 min): 90 mg/dL | I: blood insulin level ([2]; test subject C, after 0 min): 4.5 µU/mL | G: blood glucose level ([2]; test subject C, after 30 min): 90 mg/dL | I: blood insulin level ([2]; test subject C, after 30 min): 4.1 µU/mL | G: blood glucose level ([2]; test subject C, after 60 min): 88 mg/dL | I: blood insulin level ([2]; test subject C, after 60 min): 3.9 µU/mL | G: blood glucose level ([2]; test subject C, after 90 min): 86 mg/dL | I: blood insulin level ([2]; test subject C, after 90 min): 4.9 µU/mL | G: blood glucose level ([2]; test subject C, after 120 min): 86 mg/dL | I: blood insulin level ([2]; test subject C, after 120 min): 4 µU/mL | G: blood glucose level ([2]; test subject C, after 180 min): 81 mg/dL | I: blood insulin level ([2]; test subject C, after 180 min): 4 µU/mL | blood glucose level compared to placebo (test subjects; 90 minutes after start of glucose tolerance test): significant decrease | blood glucose level compared to placebo (test subjects; [3]): significant decrease
